Experimental data reported in patent US10466253B2, “Molecular flux rates through critical pathways measured by stable isotope labeling in vivo, as biomarkers of drug action and disease activity” (The Regents of the University of California, priority 2004, dated 2019).
“Also recorded” adds a separate entry of the source. Read-outs that look alike come from different tables or passages of the source.

What was measured:
[1] = test system: liver cells; test: Liver cell proliferation under carbon tetrachloride treatment (2H2O labeling); format: in vivo, Swiss Webster mice; details: IP injections over 7 days, increasing doses, concurrent 2H2O
Procedure: FIG. 13 depicts in vivo dose response of liver cell proliferation over 7 days of carbon tetrachloride treatment. Swiss Webster mice were given IP injections of CCl4 over 7 days concurrent with ^2H2O.
Mice are given CCl4 i.p. twice weekly for up to 4 weeks, and continuous oral ^2H2O is given throughout, following an i.p. bolus of ^2H2O. Livers are perfused in situ with saline to minimize blood cell contamination. Livers are homogenized and DNA from 5-mg aliquots is analyzed for ^2H incorporation by gas chromatography/mass spectrometry analysis, after isolation and hydrolysis of genomic DNA, as described in Example 1, supra. Livers are collected 4 days after the last dose of CCl4. The cell proliferation rate can then be calculated from the enrichment in the DNA of the target cell compared to measured body water enrichment or to a reference cell type which is fully replaced.
DNA is extracted from a liver sample, either by biopsy or liver homogenate. Liver cell proliferation can be determined on a sample a small as 2 mg (400,000 cells). The use of total liver, rather than isolated hepatocytes, allows for efficient scale-up and the sample processing can be adapted to a 96-well automated system for extremely high throughput. Total liver cell proliferation will be compared to the measured proliferation of isolated hepatocytes, and non-parenchymal cells for validation. […]

[2] = test system: liver collagen synthesis; test: Liver collagen synthesis in CCl4-induced liver fibrosis; details: for rate of liver collagen synthesis in CCl4-treated mice: CCl4-induced liver fibrosis
[3] = test system: SW 1753 cells; test: DNA methylation in cultured tumor cells (2H3-methyl methionine labeling, GC-MS of methylcytosine); format: cell-based; details: for inhibition at 0.25 µM: read-out: inhibition of methylation (reduction)
[4] = test system: EMT7 mouse mammary carcinoma cells; test: In vivo tumor cell proliferation over 5 days of chemotherapy; set-up: species or system female balb/C mice; details: Gem 125 mg/kg every other day, HU 500 mg/kg daily
[5] = test system: bone marrow; test: Bone marrow proliferation in tumor-bearing mice over 5 days of chemotherapy; format: in vivo, female balb/C mice; details: Gem 125 mg/kg every other day, HU 500 mg/kg daily
[6] = Tolerability of maintained 2H2O body water enrichment; format: in vivo, humans and experimental animals; details: 1-10% of total body water labeled, weeks or months; >100 human subjects
Source text: Relatively high body water enrichments of ^2H2O (e.g., 1-10% of the total body water is labeled) may be achieved relatively inexpensively using the techniques of the invention. […] This finding in a large number of human subjects (>100 people) is contrary to previous concerns about vestibular toxicities at high doses of ^2H2O. The Applicant has discovered that as long as rapid changes in body water enrichment are prevented (e.g., by initial administration in small, divided doses), high body water enrichments of ^2H2O can be maintained with no toxicities. For example, the low expense of commercially available ^2H2O allows long-term maintenance of enrichments in the 1-5% range at relatively low expense (e.g., calculations reveal a lower cost for 2 months labeling at 2% ^2H2O enrichment, and thus 7-8% enrichment in the alanine precursor pool, than for 12 hours labeling of ^2H-leucine at 10% free leucine enrichment, and thus 7-8% enrichment in leucine precursor pool for that period).

[7] = test system: hippocampal neuroprogenitor cells; test: Hippocampal neuroprogenitor cell proliferation (2H2O labeling of DNA, GC/MS); format: in vivo, male 129SvEv mice
Procedure: FIG. 7 depicts the effects of chronic imipramine treatment on hippocampal neuroprogenitor cell proliferation in male 129SvEv mice. […] Mice received 3 weeks of treatment with imipramine (20 mg/kg/day) in drinking water and were labeled with 10% ^2H2O during the last 3 days of treatment. Data represent mean±SD, n=4 per group.
FIG. 8 depicts the effects of chronic fluoxetine treatment on hippocampal neuroprogenitor cell proliferation in male 129SvEv mice. […] Mice received 2 weeks of treatment with fluoxetine (10 mg/kg/day) in drinking water and were labeled with 10% ^2H2O during the last week of treatment.
DNA is then isolated from the tissue or cell of interest using a Qiagen kit (Qiagen, Valencia, Calif.), following the manufacturer's protocol. Isolated DNA, eluted in water, is adjusted to pH 9-10 and hydrolyzed enzymatically; deoxyribose is released selectively from purine (dA/dG) deoxynucleotides and converted to the pentane tetraacetate derivative. Alternatively, a pentafluorobenzyl derivative is prepared by reaction with excess pentafluorobenzyl hydroxylamine under acidic conditions, followed by acetylation with acetic anhydride. Either type of derivative is subsequently extracted with an organic solvent, dried with sodium sulfate, and analyzed by GC/MS as described, supra. […]

[8] = test system: bone marrow cells (total, lymphoid, myeloid, other); test: Bone marrow cell subset proliferation after hydroxyurea (myelosuppression)
[9] = test system: mature neurons; test: Proliferation of mature neurons (neurogenesis; flow cytometry isolated neurons); format: in vivo; details: imipramine-treated vs normal adult mice
Source text: FIG. 27 depicts the proliferation of mature neurons in normal and antidepressant (imipramine)-treated adult mice. Neurons were isolated by flow cytometry and analyzed as described in Example 2, infra.
Animals are sacrificed, brain is removed and the hippocampus is dissected out. […] Different durations of label administration can be used to differentiate between the kinetics of rapidly proliferating cells, such as the progenitor cell population, compared to the slower rate of label incorporation in neuronal cells. In order to assess neurogenesis directly, ^2H2O-labeled […] are sacrificed, the brain is removed, the hippocampus is dissected out and cut into 0.5 mm slices followed by digestion/dissociation with papain and trypsin. The isolated cells are stained for neuronal markers and sorted by flow cytometry. DNA is isolated and labeling is measured as described, supra.

[10] = test system: endothelial cells from xenograft tumors; test: Tumor endothelial cell proliferation in xenograft tumors (angiogenesis); format: in vivo, Balb/c Nu-/Nu- mice; details: two weeks drug treatment; vs vehicle (saline)/untreated group
Procedure: FIG. 18 depicts proliferation of endothelial cells from xenograft tumors in mice treated with an anti-angiogenic drug (Avastin) or a vehicle (saline). Endothelial cell proliferation is suppressed in animals treated with the drug.
The kinetics of angiogenesis are measured in liver and tumor xenografts. Balb/c Nu−/Nu− mice are transplanted with human breast tumor cells. After labeling with ^2H2O, individual animals are sacrificed, and both tumor tissue and liver tissue are harvested from the same animal. The tissue is then digested with collagenase (1 mg/mL) into a single cell suspension. Endothelial cells are enriched by Percoll gradient centrifugation, followed by FACS (sorting on isolection and CD31 positive cells). The proliferation rate of tumor endothelial cells, as well as liver endothelial cells is then measured by purifying, processing, derivatizing, and analyzing the DNA from the isolated endothelial cells, as described in example 2, supra.

[11] = test system: microglia; test: Microglial proliferation assay of neuroinflammation (2H2O labeling, FACS-isolated microglia); format: in vivo, mice; details: LPS i.p. (1 and 4 mg/kg every other day in FIG. 14); vs control; p<0.05 / p<0.01 ANOVA/Tukey
Procedure: FIG. 14 depicts microglial response to the neuroinflammatory toxin lipopolysacharride (LPS). LPS is administered every other day to mice intraperitoneally at the two doses indicated (1 and 4 mg/kg body weight). ^2H2O was administered concurrently. Some animals were harvested at each of the indicated time points, and microglia were isolated and analyzed for deuterium incorporation. […] Error bars indicate standard deviation.
FIG. 15 depicts the effects of two anti-inflammatory chemotherapeutic agents (dexamethasone and minocycline) on microglial proliferation. Mice were given ^2H2O and either intraperitoneal lipopolysaccharide (LPS) to induce neuroinflammation, or a vehicle (control). Mice given LPS were treated with either a vehicle or dexamethasone or minocycline. Microglia were then isolated and analyzed for deuterium incorporation as described herein.
Mice are labeled with ^2H2O for an appropriate period. Mice are anesthetized and perfused with 10 mL ice cold PBS (trans-cardiac perfusion). Brains are immediately harvested and placed on ice in cold PBS. […]
The resulting cells are stained with the macrophage specific markers F4/80 and CD11b, fixed in 4% paraformaldehyde (PFA), and then isolated by FACS. […] DNA is extracted from sorted cells, hydrolyzed, derivatized, and analyzed by GC/MS as described in Example 2, supra. […]

[12] = test system: cerebral cortical tissue; test: Cerebral cortical tissue/cell turnover (2H2O labeling of cortical DNA); details: high dose of LPS
[13] = single dose 500 mg/kg i.p., 8% 2H2O for subsequent 24 hours, vs vehicle

Question: Which results are given for `ClC(Cl)(Cl)Cl` [CCl4, carbon tetrachloride]?
Answer: total liver cell turnover (proliferation of liver cells) [1]: increased proliferation of liver cells; collagen synthesis in mouse liver ([2]; fibrotic agent alone): increases collagen synthesis

Question: With `Nc1ncn([C@H]2C[C@H](O)[C@@H](CO)O2)c(=O)n1` [Decitabine, decitabine] as the molecule, how does the inhibition at 0.25 µM [3] read?
Answer: 70%

Question: Which tumor cell proliferation [4] does the source give for `Nc1ccn([C@@H]2O[C@H](CO)[C@@H](O)C2(F)F)c(=O)n1` [Gem, gemcitabine] here?
Answer: suppressed

Question: What about the tumor cell proliferation ([4]; listed as gemcitabine) of the same molecule?
Answer: reduced

Question: What about the bone marrow proliferation [5] of the same molecule?
Answer: suppressed

Question: For `[2H]O[2H]` [^2H2O], which “toxicity of maintained body water enrichment” value [6] is on record?
Answer: without any evidence of toxicity

Question: With `Nc1ncn([C@@H]2O[C@H](CO)[C@@H](O)[C@H]2O)c(=O)n1` [azacytidine, azacitidine] as the molecule, how does the inhibition at 0.25 µM ([3]; 250 nM, SW 1753 cells, DMEM 10% FBS with 2H3-methyl methionine) read?
Answer: < 10%

Question: And the “fraction of methylcytosine that is new” value ([3]; 24-hour labeling period, 125, 250, 500 nM)?
Answer: suppressed

Question: Which “hippocampal neuroprogenitor cell proliferation” value ([7]; fluoxetine 10 mg/kg/day in drinking water, 2 weeks, 10% 2H2O during last week, p<0.05 vs vehicle) does the source give for `CNCCC(Oc1ccc(C(F)(F)F)cc1)c1ccccc1` (stereo not shown) [fluoxetine] here?
Answer: increases progenitor cell proliferation; also recorded: significant increase

Question: For `NC(=O)NO` [hydroxyurea], which tumor cell proliferation [4] is on record?
Answer: reduced

Question: What about the tumor cell proliferation ([4]; listed as HU) of the same molecule?
Answer: suppressed

Question: What about the bone marrow proliferation [5] of the same molecule?
Answer: suppressed

Question: What about the “bone marrow proliferation across subsets (TBM, lymphoid, myeloid, other)” value ([8]; in three cases (indicated by **)) of the same molecule?
Answer: suppressed bone marrow proliferation

Question: And the “proliferation of lymphoid bone marrow cells” value [8, 13]?
Answer: statistically significant suppressive effect

Question: What about the “proliferation of other bone marrow cells” value [8, 13] of the same molecule?
Answer: statistically significant suppressive effect

Question: And the “proliferation of total bone marrow (TBM)” value [8, 13]?
Answer: statistically significant suppressive effect

Question: What does the source list for `CN(C)CCCN1c2ccccc2CCc2ccccc21` [imipramine]?
Answer: hippocampal neuroprogenitor cell proliferation ([7]; imipramine 20 mg/kg/day in drinking water, 3 weeks, 10% 2H2O during last 3 days, vs vehicle): increases progenitor cell proliferation; also recorded: significant increase; rate of mature neuron formation [9]: increased formation of mature neurons; rate of mature neuron formation ([9]; listed as Imipramine): increased the rate of mature neuron formation

Question: Which “tumor endothelial cell proliferation rate” value [10] does the source give for “Avastin: Avastin (Genentech, CA), a known anti-angiogenesis drug” here?
Answer: suppressed; also recorded: significantly lower proliferation rate

Question: Which microglial proliferation [11] does the source give for lipopolysaccharide [LPS] here?
Answer: increased proliferative response; also recorded: increased proliferation; also recorded: statistically significant and dose-dependent increase

Question: And the cortical tissue turnover [12]?
Answer: affected cortical tissue turnover; also recorded: increased cortical cell turnover

B1: Interferon-gamma: anti-fibrotic agent (protein, UniProt P01579 24-161, looked up)
Interferon gamma: QDPYVKEAENLKKYFNAGHSDVADNGTLFLGILKNWKEESDRKIMQSQIVSFYFKLFKNFKDDQSIQKSVETIKEDMNVKFFNSNKKKRDDFEKLTNYSVTDLNVQRKAIHELIQVMAELSPAAKTGKRKRSQMLFRG
Question: Which “rate of liver collagen synthesis in CCl4-treated mice” value [2] does the source give for B1 here?
Answer: reduce the rate of collagen synthesis

Question: What about the “rate of liver collagen synthesis in CCl4-treated mice” value ([2]; listed as interferon-gamma) of the same molecule?
Answer: suppressed
